Activity calls are given as the source filed them.
Key:
[1] = luciferase reporter signal suppression in cells – H4 neuroglioma cells, luminescence, dose response (AID 1990); type: functional, cell-based
[2] = target: T1, Sentrin-specific protease 8 (Homo sapiens, UniProt Q96LD8); type: functional
T1 sequence (Q96LD8 whole entry): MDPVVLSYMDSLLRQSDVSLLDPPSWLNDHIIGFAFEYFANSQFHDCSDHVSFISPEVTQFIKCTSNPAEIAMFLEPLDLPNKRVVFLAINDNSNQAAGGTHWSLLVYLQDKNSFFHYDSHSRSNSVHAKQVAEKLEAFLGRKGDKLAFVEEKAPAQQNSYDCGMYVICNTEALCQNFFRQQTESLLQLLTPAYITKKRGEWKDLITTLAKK

[3] = target: T1, Sentrin-specific protease 8; type: functional; remark: listed apart in the source
[4] = target: T2, RNA-binding protein pos-1 (Caenorhabditis elegans, UniProt G5EF15); test: disruptors of C. elegans POS-1 RNA interaction – biochemical, fluorescence polarization, dose response (AID 1964);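 also: purified POS-1 fused to maltose binding protein made in E. coli; potency of compounds blocking POS-1 binding to fluorescent RNA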
T2 sequence (G5EF15 whole entry): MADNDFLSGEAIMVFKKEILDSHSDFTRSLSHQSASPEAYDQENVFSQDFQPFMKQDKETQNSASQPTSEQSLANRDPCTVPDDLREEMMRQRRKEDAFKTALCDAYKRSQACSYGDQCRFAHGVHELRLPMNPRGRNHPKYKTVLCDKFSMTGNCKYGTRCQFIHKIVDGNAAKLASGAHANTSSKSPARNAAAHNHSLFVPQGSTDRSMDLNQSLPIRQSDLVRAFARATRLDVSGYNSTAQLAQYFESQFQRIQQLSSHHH

[5] = target: T3, Streptokinase A (Streptococcus pyogenes serotype M1, UniProt P10520); test: viability-normalized secreted streptokinase activity reduction – plasminogen activation absorbance, OD405, dose response (AID 1914); type: functional, Streptococcus pyogenes M1 GAS;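 also: secreted streptokinase activity via plasminogen activation per viability signal from cell pellet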
T3 sequence (P10520 whole entry): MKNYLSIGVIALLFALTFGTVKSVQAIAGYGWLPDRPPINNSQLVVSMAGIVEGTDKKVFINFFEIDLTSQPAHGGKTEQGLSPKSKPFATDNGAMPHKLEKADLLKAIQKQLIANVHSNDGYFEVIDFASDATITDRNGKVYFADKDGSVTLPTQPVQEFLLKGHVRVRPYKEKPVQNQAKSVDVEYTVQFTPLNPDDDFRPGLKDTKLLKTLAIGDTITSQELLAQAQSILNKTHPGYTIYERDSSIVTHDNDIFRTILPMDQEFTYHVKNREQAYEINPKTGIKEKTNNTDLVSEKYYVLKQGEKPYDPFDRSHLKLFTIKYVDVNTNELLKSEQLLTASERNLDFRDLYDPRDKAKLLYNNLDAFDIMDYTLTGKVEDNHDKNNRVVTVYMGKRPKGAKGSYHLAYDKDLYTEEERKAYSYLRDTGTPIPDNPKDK

[6] = target: T4, Mannose-6-phosphate isomerase (Homo sapiens, UniProt P34949); test: MPI enzyme activity inhibition – biochemical, fluorescence intensity, coupled assay, primary screen (AID 1209)
T4 sequence (P34949 whole entry): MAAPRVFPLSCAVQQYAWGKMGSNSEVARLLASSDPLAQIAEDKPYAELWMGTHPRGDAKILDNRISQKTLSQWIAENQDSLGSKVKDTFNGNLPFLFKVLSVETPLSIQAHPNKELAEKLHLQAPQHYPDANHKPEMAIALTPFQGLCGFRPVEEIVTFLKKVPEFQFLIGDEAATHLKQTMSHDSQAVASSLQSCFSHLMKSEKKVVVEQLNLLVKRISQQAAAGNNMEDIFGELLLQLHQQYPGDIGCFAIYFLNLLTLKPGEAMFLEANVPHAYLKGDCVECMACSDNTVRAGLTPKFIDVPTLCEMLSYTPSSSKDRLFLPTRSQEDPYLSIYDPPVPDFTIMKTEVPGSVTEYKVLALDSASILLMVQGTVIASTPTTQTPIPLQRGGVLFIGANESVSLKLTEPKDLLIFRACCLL

[7] = non-specific 3'UTR reporter inhibition in Clone20-Shn3RL – cell-based, Renilla luciferase, cherry-picked, counter-screen for Shn3 inhibitor project, dose response (AID 624133); type: functional
[8] = loss of viability in HepG2 cells – cell-based, CellTiter-Glo, cherry-picked, cytotoxicity control for Shn3 inhibitor project, dose response (AID 624134); type: functional
[9] = reduction of Shn3 3'UTR-driven luciferase in osteoblasts – cell-based, Clone20 osteoblasts, firefly luciferase, cherry-picked, dose response (AID 624132); type: functional;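 also: firefly luciferase luminescence from reporter carrying the Shn3 3'UTR in osteoblasts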
[10] = target: Kappa-type opioid receptor (Homo sapiens, UniProt P41145); type: functional
Chain of Kappa-type opioid receptor (P41145 whole entry): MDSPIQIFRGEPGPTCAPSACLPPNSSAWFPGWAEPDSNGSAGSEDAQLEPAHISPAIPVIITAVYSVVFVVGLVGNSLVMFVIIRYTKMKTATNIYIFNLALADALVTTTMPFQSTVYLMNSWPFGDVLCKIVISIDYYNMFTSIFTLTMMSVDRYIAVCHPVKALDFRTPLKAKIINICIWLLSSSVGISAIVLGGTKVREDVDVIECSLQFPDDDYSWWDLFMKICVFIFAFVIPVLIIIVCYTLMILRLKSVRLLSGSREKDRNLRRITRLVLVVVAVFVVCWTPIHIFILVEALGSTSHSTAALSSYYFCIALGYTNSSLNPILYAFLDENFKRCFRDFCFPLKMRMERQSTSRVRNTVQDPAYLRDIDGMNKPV

[11] = target: Beta Lactamase (Pseudomonas aeruginosa, UniProt Q932Y6); test: BLA reporter interference, concentration series – BLA reporter cells, FRET fluorescence, artefact control for TLR9-MyD88 binding inhibitor project, dose response (AID 588341); type: cell-based;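 also: cell based assay in CHO-K1 cells stably expressing beta-lactamase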
Chain of Beta Lactamase (Q932Y6 whole entry): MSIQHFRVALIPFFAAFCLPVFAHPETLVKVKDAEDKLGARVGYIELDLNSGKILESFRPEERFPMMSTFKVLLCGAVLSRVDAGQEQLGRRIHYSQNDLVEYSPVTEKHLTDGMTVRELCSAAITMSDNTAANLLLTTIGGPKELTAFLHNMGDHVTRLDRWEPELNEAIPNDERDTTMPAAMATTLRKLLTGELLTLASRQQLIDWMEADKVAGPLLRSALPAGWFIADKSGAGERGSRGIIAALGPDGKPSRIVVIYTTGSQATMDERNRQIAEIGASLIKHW

[12] = target: Delta-type opioid receptor (Homo sapiens, UniProt P41143); test: HTS Image-Based Screen for Agonists of the DOR Receptor. [Related pubchem assays (depositor defined):AID1777, AID1786, AID2133]; type: functional
Chain of Delta-type opioid receptor (P41143 whole entry): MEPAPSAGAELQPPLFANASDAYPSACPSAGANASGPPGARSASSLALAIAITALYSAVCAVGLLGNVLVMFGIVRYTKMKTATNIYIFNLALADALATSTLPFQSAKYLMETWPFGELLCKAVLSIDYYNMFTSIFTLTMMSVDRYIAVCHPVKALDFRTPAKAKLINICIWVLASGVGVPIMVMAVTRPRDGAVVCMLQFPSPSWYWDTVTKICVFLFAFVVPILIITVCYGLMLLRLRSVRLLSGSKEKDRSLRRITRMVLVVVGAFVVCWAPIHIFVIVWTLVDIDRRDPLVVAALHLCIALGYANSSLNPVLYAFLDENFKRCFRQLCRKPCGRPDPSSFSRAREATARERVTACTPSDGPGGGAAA

[13] = target: T5, Caspase-6 (Homo sapiens, UniProt P55212); test: inhibition of CASP6 peptide cleavage – biochemical, VEID-R110 fluorescence, cherry-pick, dose response (AID 720632)
T5 sequence (P55212 whole entry): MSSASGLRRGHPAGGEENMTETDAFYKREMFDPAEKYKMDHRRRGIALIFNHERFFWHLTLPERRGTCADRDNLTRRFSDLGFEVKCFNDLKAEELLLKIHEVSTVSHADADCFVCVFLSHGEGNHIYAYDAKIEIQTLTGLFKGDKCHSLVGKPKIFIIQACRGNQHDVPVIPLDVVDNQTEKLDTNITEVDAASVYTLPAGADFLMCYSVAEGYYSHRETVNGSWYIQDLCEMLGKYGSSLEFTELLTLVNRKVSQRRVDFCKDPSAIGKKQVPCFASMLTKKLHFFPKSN

[14] = target: Perilipin-1/ABHD5 (Homo sapiens, UniProt O60240+Q8WTS1); test: Luminescence-based biochemical high throughput dose response assay for inhibitors of the interaction of the lipase co-activator protein, abhydrolase domain containing 5 (ABHD5) with perilipin-1 (PLIN1) (2K validation set). [Related pubchem assays (depositor defined):AID493027, AID493057]
Chain of Perilipin-1/ABHD5 (Q8WTS1 whole entry, the tested form may be a part): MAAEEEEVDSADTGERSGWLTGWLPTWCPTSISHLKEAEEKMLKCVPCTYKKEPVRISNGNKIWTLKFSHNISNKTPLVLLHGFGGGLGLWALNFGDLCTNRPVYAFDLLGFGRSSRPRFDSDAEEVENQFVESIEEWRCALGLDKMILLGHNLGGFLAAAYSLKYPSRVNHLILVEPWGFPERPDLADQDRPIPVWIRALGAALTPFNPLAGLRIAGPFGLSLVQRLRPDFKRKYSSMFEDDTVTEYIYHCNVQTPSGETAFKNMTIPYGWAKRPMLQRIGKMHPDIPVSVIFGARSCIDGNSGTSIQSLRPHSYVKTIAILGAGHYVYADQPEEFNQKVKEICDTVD
Chain of Perilipin-1/ABHD5 (O60240 whole entry, the tested form may be a part): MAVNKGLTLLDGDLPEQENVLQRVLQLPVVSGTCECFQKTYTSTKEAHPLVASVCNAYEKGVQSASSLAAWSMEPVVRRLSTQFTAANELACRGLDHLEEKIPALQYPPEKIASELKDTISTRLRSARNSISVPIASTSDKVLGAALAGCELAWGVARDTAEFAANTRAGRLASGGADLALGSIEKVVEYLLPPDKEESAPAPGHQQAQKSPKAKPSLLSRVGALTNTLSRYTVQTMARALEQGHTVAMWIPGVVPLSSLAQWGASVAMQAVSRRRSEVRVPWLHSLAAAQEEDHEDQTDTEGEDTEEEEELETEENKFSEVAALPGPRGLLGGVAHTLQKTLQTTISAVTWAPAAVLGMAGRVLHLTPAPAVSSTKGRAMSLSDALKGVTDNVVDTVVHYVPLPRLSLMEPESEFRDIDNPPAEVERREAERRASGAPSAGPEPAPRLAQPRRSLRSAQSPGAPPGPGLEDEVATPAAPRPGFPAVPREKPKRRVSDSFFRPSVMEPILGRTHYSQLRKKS

[15] = target: Peroxisome proliferator-activated receptor gamma/Nuclear receptor corepressor 2 (Homo sapiens, UniProt P37231+Q9Y618); type: functional
[16] = target: Sphingosine 1-phosphate receptor 1 (Homo sapiens, UniProt P21453); type: functional;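 also: Tango beta-arrestin reporter U2OS cells stimulated with S1P near its EC80; inhibitor potency meaning antagonism of receptor activation by the natural agonist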
Chain of Sphingosine 1-phosphate receptor 1 (P21453 whole entry): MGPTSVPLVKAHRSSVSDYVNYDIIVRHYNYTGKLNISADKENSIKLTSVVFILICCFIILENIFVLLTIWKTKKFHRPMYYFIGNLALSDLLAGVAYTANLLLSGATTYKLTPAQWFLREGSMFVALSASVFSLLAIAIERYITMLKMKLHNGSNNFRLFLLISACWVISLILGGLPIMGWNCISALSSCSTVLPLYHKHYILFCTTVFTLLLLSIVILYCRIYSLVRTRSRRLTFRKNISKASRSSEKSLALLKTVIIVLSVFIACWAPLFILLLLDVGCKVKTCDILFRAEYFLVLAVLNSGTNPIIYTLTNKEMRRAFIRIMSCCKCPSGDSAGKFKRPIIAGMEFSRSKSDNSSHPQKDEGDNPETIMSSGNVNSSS

[17] = target: Phospholipase A2 (Homo sapiens, UniProt P04054); type: functional;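 also: confirmatory dose-response counterscreen on phospholipase A2, testing hits that came from an ultra-high-throughput screen for ATG4B inhibitors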
Chain of Phospholipase A2 (P04054 whole entry): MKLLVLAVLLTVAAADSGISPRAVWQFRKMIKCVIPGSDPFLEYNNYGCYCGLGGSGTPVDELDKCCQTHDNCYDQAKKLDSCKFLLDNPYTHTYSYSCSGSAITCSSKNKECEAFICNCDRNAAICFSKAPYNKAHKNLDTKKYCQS

[18] = target: 1-phosphatidylinositol 4,5-bisphosphate phosphodiesterase beta-3 (Homo sapiens, UniProt Q01970); test: Fluorescence-based biochemical high throughput dose response assay to identify inhibitors of phospholipase C isozymes (PLC-B3).
Chain of 1-phosphatidylinositol 4,5-bisphosphate phosphodiesterase beta-3 (Q01970 whole entry): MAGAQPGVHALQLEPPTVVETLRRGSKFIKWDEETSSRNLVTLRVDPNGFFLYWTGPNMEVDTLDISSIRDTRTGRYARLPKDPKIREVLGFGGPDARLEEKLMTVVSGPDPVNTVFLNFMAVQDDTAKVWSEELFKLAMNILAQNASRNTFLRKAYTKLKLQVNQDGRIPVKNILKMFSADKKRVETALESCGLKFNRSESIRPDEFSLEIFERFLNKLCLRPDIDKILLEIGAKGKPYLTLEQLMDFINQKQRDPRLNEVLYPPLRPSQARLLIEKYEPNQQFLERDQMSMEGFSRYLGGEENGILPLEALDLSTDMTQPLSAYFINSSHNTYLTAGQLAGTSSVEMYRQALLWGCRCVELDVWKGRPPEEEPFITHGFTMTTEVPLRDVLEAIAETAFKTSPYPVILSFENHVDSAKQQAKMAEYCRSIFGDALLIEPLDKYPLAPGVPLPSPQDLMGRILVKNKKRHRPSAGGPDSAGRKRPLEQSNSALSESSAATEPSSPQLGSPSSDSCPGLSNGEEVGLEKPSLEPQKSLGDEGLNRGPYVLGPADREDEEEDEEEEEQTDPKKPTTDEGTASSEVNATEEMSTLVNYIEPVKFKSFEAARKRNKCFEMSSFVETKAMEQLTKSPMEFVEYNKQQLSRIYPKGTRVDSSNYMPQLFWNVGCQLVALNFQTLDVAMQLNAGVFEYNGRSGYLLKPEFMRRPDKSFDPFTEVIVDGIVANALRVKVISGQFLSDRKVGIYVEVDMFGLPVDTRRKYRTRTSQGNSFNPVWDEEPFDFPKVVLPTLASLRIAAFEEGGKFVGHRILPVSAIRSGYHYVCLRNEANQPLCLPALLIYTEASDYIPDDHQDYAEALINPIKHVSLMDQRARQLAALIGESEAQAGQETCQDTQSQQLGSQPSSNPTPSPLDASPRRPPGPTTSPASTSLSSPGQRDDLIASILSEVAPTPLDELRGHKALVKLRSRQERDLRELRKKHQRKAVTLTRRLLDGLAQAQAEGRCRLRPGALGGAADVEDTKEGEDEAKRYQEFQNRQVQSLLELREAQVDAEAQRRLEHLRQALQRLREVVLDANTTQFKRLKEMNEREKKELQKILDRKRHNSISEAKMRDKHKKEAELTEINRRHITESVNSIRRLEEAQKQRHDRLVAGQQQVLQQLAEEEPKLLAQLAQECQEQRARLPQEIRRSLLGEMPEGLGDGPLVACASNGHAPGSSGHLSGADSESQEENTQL

Question: With `O=C1c2cc(F)ccc2-n2c1nc1ccccc1c2=O` as the compound, how does the EC50 [1] read?
Answer: 10 µM (inconclusive)

Question: And the IC50 [2]?
Answer: 0.985 µM (active)

Question: What about the IC50 [3] of the same compound?
Answer: 0.962 µM (active)

Question: And the EC50 [4]?
Answer: > 300 µM (not active)

Question: Which EC50 [5] does the source give for `CCOC(=O)C1=C(c2ccc(OC)cc2)C(=O)c2ccccc2C1=O` here?
Answer: > 150 µM (not active)

Question: What about the IC50 [6] of the same compound?
Answer: 42.4 µM (active)

Question: Which AC50 [7] does the source give for `CCC(=O)OCCNc1cc(Sc2nccn2C)c2nonc2c1[N+](=O)[O-]` here?
Answer: 4.16 µM (active)

Question: And the AC50 [8]?
Answer: 16.1 µM (active)

Question: What about the AC50 [9] of the same compound?
Answer: 1.55 µM (active)

Question: What about the IC50 [10] of the same compound?
Answer: 22.7 µM

Question: What about the IC50 [11] of the same compound?
Answer: 8.31 µM (active)

Question: What about the EC50 [12] of the same compound?
Answer: > 32 µM (inactive)

Question: With `CCCCn1c(NC(=O)c2ccccc2Cl)c(C#N)c2nc3ccccc3nc21` as the compound, how does the AC50 [13] read?
Answer: 14.1 µM (active)

Question: For `O=C1C(=O)c2ccccc2-c2ccccc21` [9,10-PHENANTHRENEQUINONE], which IC50 [14] is on record?
Answer: 12.3 µM (inactive)

Question: And the IC50 [15]?
Answer: 1.84 µM (active)

Question: And the IC50 [16]?
Answer: 5.02 µM (active)

Question: What about the IC50 [17] of the same compound?
Answer: 42.8 µM (inactive)

Question: And the IC50 [18]?
Answer: > 122 µM (inactive)

— ChEMBL document CHEMBL1201862, “PubChem BioAssay data set” (2004)
